From patent US9108921B2, “Therapeutic compounds and compositions” (AGIOS PHARMACEUTICALS, INC, priority 2014, dated 2015) come the findings set out here.

Common to all, as to assay type: biochemical
One experiment addresses PKR R532W (Homo sapiens, UniProt P30613, R532W). The experiment in a line: PKR Mutant Assay, AC50 against PKR R532W. The settings on record: mutant PKR R532W enzyme. On the procedure:
(§1) • PKR or PKR mutant enzyme solution was diluted in assay buffer. • 2 μL of test compound was added into wells first, and then 180 μL reaction mix was added. • Reactions mixture with test compound was assembled except for ADP, and plates were stored for 60 minutes at room temperature. • 20 uL ADP was added to start reaction at room temperature and reaction progress was measured as changes in absorbance at 340 nm wavelength at room temperature.
(§2) Test Compound Preparation: • Test compound stock was made at 100× concentration in 100% DMSO (10 mM) • 1 to 3 dilutions were made for 11 points (i.e. 50 μl of first concentration added to 100 μl 100% DMSO to yield 3.33 mM, 50 μl of this added to 100 μl DMSO to yield 1.11 mM, and so forth) • 1 to 100 dilution into assay (2 μl in 200 μl) yielded starting concentration of 100 μM, decreasing 3 fold for 11 points. Assay Buffer: 100 mM KCl, 50 mM Tris 7.5, 5 mM MgCl2, 1 mM DTT, 0.03% BSA Reaction Mixture: PKR mutant enzyme: 80-400 ng/well; ADP: 0.22-1.65 mM; PEP: 0.1-0.5 mM; NADH: 180 uM; LDH: 0.5 units (Sigma#59023); DTT: 1 mM; BSA: 0.03%.

The target of the next experiment is PKR WT (Homo sapiens, UniProt P30613). The experiment in a line: PKR WT enzymatic AC50 assay. As to conditions: wild type PKR. How it is done:
as §1, §2

The next experiment has as its target PKR R510Q (Homo sapiens, UniProt P30613, R510Q). The experiment can be described thus: PKR Mutant Assay, AC50 against PKR R510Q. As to conditions: mutant PKR R510Q enzyme. On the procedure:
as §1, §2

Chain of PKR R532W (P30613 whole entry R532W): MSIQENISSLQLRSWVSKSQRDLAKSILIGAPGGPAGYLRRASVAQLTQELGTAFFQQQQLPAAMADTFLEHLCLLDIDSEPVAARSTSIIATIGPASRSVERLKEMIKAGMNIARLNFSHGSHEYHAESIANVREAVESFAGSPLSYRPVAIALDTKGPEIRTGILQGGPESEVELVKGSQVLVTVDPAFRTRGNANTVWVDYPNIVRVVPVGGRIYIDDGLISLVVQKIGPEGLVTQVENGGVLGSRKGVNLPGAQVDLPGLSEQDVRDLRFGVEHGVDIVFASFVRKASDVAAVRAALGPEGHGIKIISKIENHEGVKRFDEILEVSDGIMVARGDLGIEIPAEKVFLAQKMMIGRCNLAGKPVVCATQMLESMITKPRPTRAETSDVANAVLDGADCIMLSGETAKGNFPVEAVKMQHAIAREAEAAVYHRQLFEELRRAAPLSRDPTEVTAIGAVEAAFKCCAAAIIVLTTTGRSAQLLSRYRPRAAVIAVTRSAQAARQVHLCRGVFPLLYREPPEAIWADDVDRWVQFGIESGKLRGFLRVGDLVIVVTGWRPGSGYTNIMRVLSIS
Chain of PKR R510Q (P30613 whole entry R510Q): as the sequence (P30613 whole entry R532W) above, with R510Q, W532R counted along it
Chain of PKR WT (P30613 whole entry): as the sequence (P30613 whole entry R532W) above, with W532R counted along it

For the compound `O=C(c1ccc(NS(=O)(=O)c2cccc3scnc23)cc1)N1CCC(O)(CCC(F)(F)F)CC1` [Compound 233, N-(4-(4-hydroxy-4-(3,3,3-trifluoropropyl)piperidine-1-carbonyl)phenyl)benzo[d]thiazole-4-sulfonamide], the AC50 at PKR R532W, on PKR WT and at PKR R510Q was 0.101 to 1 µM in each case.
Take `O=C(c1ccc(NS(=O)(=O)c2ccc(F)c3nccnc23)cc1)N1CCC(O)(c2ccccc2Cl)CC1` [Compound 234, N-(4-(4-(2-chlorophenyl)-4-hydroxypiperidine-1-carbonyl)phenyl)-8-fluoroquinoxaline-5-sulfonamide]: the AC50 at PKR R532W, on PKR WT and at PKR R510Q was 0.101 to 1 µM each time.
For `O=C(c1ccc(NS(=O)(=O)c2cccc3scnc23)cc1)N1CCC(O)(CCC(F)F)CC1` [Compound 235, N-(4-(4-(3,3-difluoropropyl)-4-hydroxypiperidine-1-carbonyl)phenyl)benzo[d]thiazole-4-sulfonamide], the AC50 at PKR R532W, at PKR WT and at PKR R510Q was 0.101 to 1 µM each time.
As for `O=C(c1ccc(NS(=O)(=O)c2cccc3cccnc23)cc1)N1CCC(CO)(c2ccccc2)CC1` [Compound 238], the AC50 on PKR R532W was 0.101 to 1 µM; at PKR WT, 0.101 to 1 µM; at PKR R510Q it was 1.01 to 10 µM.
`CC(C)CC1(O)CCN(C(=O)c2ccc(NS(=O)(=O)c3ccc(F)c4scnc34)cc2)CC1` [Compound 240, 7-fluoro-N-(4-(4-hydroxy-4-isobutylpiperidine-1-carbonyl)phenyl)benzo[d]thiazole-4-sulfonamide]: the AC50 on PKR R532W, on PKR WT and at PKR R510Q was 0.101 to 1 µM each time.
In the case of `CC(C)CC1(O)CCN(C(=O)c2ccc(NS(=O)(=O)c3ccc(F)c4nccnc34)cc2)CC1` [Compound 242], the AC50 at PKR R532W, on PKR WT and on PKR R510Q was 0.101 to 1 µM in each case.
As for `O=C(c1ccc(NS(=O)(=O)c2cccc3csnc23)cc1)N1CCC(O)(c2ccccc2Cl)CC1` [Compound 244, N-(4-(4-(2-chlorophenyl)-4-hydroxypiperidine-1-carbonyl)phenyl)benzo[c]isothiazole-7-sulfonamide], the AC50 at PKR R532W fell in the range of 0.101 to 1 µM; at PKR WT, 0.101 to 1 µM; on PKR R510Q it was 1.01 to 10 µM.
Take `CCOCC1(O)CCN(C(=O)c2ccc(NS(=O)(=O)c3cccc4cccnc34)cc2)CC1` [Compound 246, N-(4-(4-(ethoxymethyl)-4-hydroxypiperidine-1-carbonyl)phenyl)quinoline-8-sulfonamide]: the results for the AC50 on PKR R532W, at PKR WT and at PKR R510Q were less than 0.1 µM, 0.101 to 1 µM and 1.01 to 10 µM, respectively.
For the compound `O=C(c1ccc(NS(=O)(=O)c2cccc3cccnc23)cc1)N1CCC(O)(c2ccnc(F)c2)CC1` [Compound 247, N-[4-[4-(2-fluoropyridin-4-yl)-4-hydroxy-piperidine-1-carbonyl]phenyl]quinoline-8-sulfonamide], the AC50 at PKR R532W is 0.101 to 1 µM; on PKR WT it was 0.101 to 1 µM; at PKR R510Q, 1.01 to 10 µM.
For `O=C(c1ccc(NS(=O)(=O)c2cccc3nccnc23)c(F)c1)N1CCC(O)(c2ccccc2Cl)CC1` [Compound 251, N-(4-(4-(2-chlorophenyl)-4-hydroxypiperidine-1-carbonyl)-2-fluorophenyl)quinoxaline-5-sulfonamide], the AC50 at PKR R532W, at PKR WT and at PKR R510Q was 0.101 to 1 µM in each case.
With `O=C(c1ccc(NS(=O)(=O)c2cccc3cccnc23)cc1)N1CCC(O)(CCCO)CC1` [Compound 253, N-(4-(4-hydroxy-4-(3-hydroxypropyl)piperidine-1-carbonyl)phenyl)quinoline-8-sulfonamide], the values for the concentration at half-maximal activity (AC50) at PKR R532W, at PKR WT and at PKR R510Q were 0.101 to 1 µM, 0.101 to 1 µM and 1.01 to 10 µM, respectively.
Consider `CC(C)CC1(O)CCN(C(=O)c2ccc(NS(=O)(=O)c3ccc(F)c(N)c3N)cc2)CC1` [Compound 254, 2,3-diamino-4-fluoro-N-(4-(4-hydroxy-4-isobutylpiperidine-1-carbonyl)phenyl)benzenesulfonamide], for which the AC50 at PKR R532W, on PKR WT and at PKR R510Q was 0.101 to 1 µM each time.
Turning to `N#Cc1ccc(C2(O)CCN(C(=O)c3ccc(NS(=O)(=O)c4cccc5cccnc45)cc3)CC2)cc1` [Compound 255, N-[4-[4-(4-cyanophenyl)-4-hydroxy-piperidine-1-carbonyl]phenyl]quinoline-8-sulfonamide], the AC50 fell in the range of 0.101 to 1 µM at PKR R532W, 0.101 to 1 µM on PKR WT and 1.01 to 10 µM on PKR R510Q.
For the compound `Nc1c(F)ccc(S(=O)(=O)Nc2ccc(C(=O)N3CCC(O)(c4ccccc4Cl)CC3)cc2)c1N` [Compound 256, 2,3-diamino-N-(4-(4-(2-chlorophenyl)-4-hydroxypiperidine-1-carbonyl)phenyl)-4-fluorobenzenesulfonamide], the AC50 at PKR R532W is 0.101 to 1 µM; on PKR WT, 0.101 to 1 µM; at PKR R510Q, 1.01 to 10 µM.
For the compound `CC(C)CC1(O)CCN(C(=O)c2ccc(NS(=O)(=O)c3cccc4csnc34)cc2)CC1` [Compound 257], the AC50 at PKR R532W was 0.101 to 1 µM; on PKR WT it was 0.101 to 1 µM; at PKR R510Q, 1.01 to 10 µM.
`CC(C)CC1(O)CCN(C(=O)c2ccc(NS(=O)(=O)c3cccc4cccnc34)c(C(F)F)c2)CC1` [Compound 258]: the AC50 on PKR R532W, on PKR WT and at PKR R510Q was 0.101 to 1 µM in each case.
Take `O=C(c1ccc(NS(=O)(=O)c2cccc3nc(F)ccc23)cc1)N1CCC(O)(c2ccccc2Cl)CC1` [Compound 259, N-(4-(4-(2-chlorophenyl)-4-hydroxypiperidine-1-carbonyl)phenyl)-2-fluoroquinoline-5-sulfonamide]: the AC50 on PKR R532W lay in the range of 0.101 to 1 µM; on PKR WT, 0.101 to 1 µM; at PKR R510Q it was 1.01 to 10 µM.
With `N#Cc1cc(NS(=O)(=O)c2cccc3cccnc23)ccc1C(=O)N1CCC(O)(c2ccccc2)CC1` [Compound 261, N-(3-cyano-4-(4-hydroxy-4-phenylpiperidine-1-carbonyl)phenyl)quinoline-8-sulfonamide], the AC50 at PKR R532W, at PKR WT and on PKR R510Q was 0.101 to 1 µM each time.
Turning to `O=C(c1ccc(NS(=O)(=O)c2cccc3nccnc23)c(F)c1)N1CCC(O)(c2cccc(F)c2F)CC1` [Compound 262, N-(4-(4-(2,3-difluorophenyl)-4-hydroxypiperidine-1-carbonyl)-2-fluorophenyl)quinoxaline-5-sulfonamide], the AC50 on PKR R532W, at PKR WT and on PKR R510Q was 0.101 to 1 µM throughout.
With `O=C(c1ccc(NS(=O)(=O)c2cccc3cccnc23)c(OC(F)F)c1)N1CCC(O)(c2ccccc2Cl)CC1` [Compound 263, N-(4-(4-(2-chlorophenyl)-4-hydroxypiperidine-1-carbonyl)-2-(difluoromethoxy)phenyl)quinoline-8-sulfonamide], the AC50 at PKR R532W, at PKR WT and on PKR R510Q was 0.101 to 1 µM in each case.
In the case of `Cc1cccc(C2(O)CCN(C(=O)c3ccc(NS(=O)(=O)c4cccc5cccnc45)cc3)CC2)n1` [Compound 265, N-[4-[4-hydroxy-4-(6-methylpyridin-2-yl)piperidine-1-carbonyl]phenyl]quinoline-8-sulfonamide], the results for the AC50 at PKR R532W, at PKR WT and on PKR R510Q were 0.101 to 1 µM, 0.101 to 1 µM and 1.01 to 10 µM, respectively.

As a reminder, the AC50 is the concentration giving half of the maximal activity seen.
